According to PubChem BioAssay (NCI):
Where “and” joins values, the source holds several entries; their conditions need not be identical. Identical values can stand only once.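 1) Cells in 96-well plates. 2) Compound, 48 h, 5 concentrations. 3) Linear interpolation between surrounding doses. 4) Unreached endpoint = highest concentration. GI50: concentration for 50% inhibition of growth. TGI: total growth inhibition.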

How the values were obtained:
Assay in all cases: DTP human tumour cell line panel, 48 h
[1] = tested on: SK-MEL-28 melanoma
[2] = tested on: SNB-19 CNS
[3] = tested on: NCI-H23 lung
[4] = tested on: KM12 colon
[5] = tested on: SW-620 colon
[6] = tested on: M19-MEL melanoma
[7] = tested on: CCRF-CEM leukemia
[8] = tested on: HCT-15 colon
[9] = tested on: HOP-62 NSCLC

Structure (SMILES)	TGI [1]	TGI [2]	TGI [3]	TGI [4]	TGI [5]	TGI [6]	TGI [7]	TGI [8]	TGI [9]	GI50 [1]	GI50 [9]	GI50 [2]	GI50 [3]	GI50 [4]	GI50 [5]	GI50 [8]	GI50 [7]
N/N=C1\c2ccccc2C2/C(=N\N)c3ccccc3C12 (stereo unspecified)	> 100 µM	> 100 µM	> 100 µM	> 100 µM	> 100 µM	> 100 µM	> 100 µM	> 100 µM	–	–	–	–	–	–	–	–	–
CC1CCCC(C(O)CC2CC(=O)N(c3ccccc3)C(=O)C2)C1=O (stereo unspecified)	> 100 µM	> 100 µM	> 100 µM	> 100 µM	> 100 µM	> 100 µM	> 100 µM	–	> 100 µM	–	–	–	–	–	–	–	–
C(CCc1nnc2c(n1)CCCC2)Cc1nnc2c(n1)CCCC2	> 100 µM	> 100 µM	> 100 µM	> 100 µM	> 100 µM	–	> 100 µM	> 100 µM	> 100 µM	–	–	–	–	–	–	–	–
Cc1cc(=O)oc2cc(OC(=O)Nc3ccc(Cl)c(Cl)c3)ccc12	67.3 µM	77.2 µM	53 µM	84 µM	48.1 µM	–	51.6 µM	> 100 µM	63.2 µM	–	–	–	–	–	–	–	–
CC(C)(C)OC(=O)NCCCCCCCCn1c2c(c3ccccc3c1=O)C(=O)c1ccccc1-2	> 50 µM	> 50 µM	> 50 µM	> 50 µM	> 50 µM	–	> 11.4 µM	> 50 µM	35 µM	> 50 µM	11.6 µM	14.9 µM	20.4 µM	> 40.4 µM	> 50 µM	> 50 µM	–
O=C(O)CCC1COc2ccccc2O1 (stereo unspecified)	> 10 µM	> 10 µM	> 10 µM	> 10 µM	> 10 µM	–	> 10 µM	> 10 µM	> 10 µM	–	–	–	–	–	–	–	–
O=C(Oc1ccc([N+](=O)[O-])cc1)N1CCN(Cc2cccc(Oc3ccccc3)c2)CC1	> 100 µM	> 100 µM	> 100 µM	> 100 µM	> 100 µM	–	> 100 µM	> 100 µM	> 100 µM	> 100 µM	> 100 µM	> 100 µM	> 71.9 µM	62.5 µM	> 100 µM	> 100 µM	40.5 µM
O=C(CC/C(C/C(=N/O)c1ccc(F)cc1)=N/O)N(Cc1ccccc1)Cc1ccccc1	> 100 µM	> 100 µM	> 100 µM	> 100 µM	> 100 µM	> 100 µM	> 100 µM	> 100 µM	> 100 µM	–	–	–	–	–	–	–	–
COc1cc(/C=C/C(=O)c2cc(F)c(Cl)cc2Cl)cc(OC)c1OC	> 100 µM	> 100 µM	> 100 µM	26.4 µM	> 100 µM	–	76.4 µM	54.4 µM	> 100 µM	32 µM	82.2 µM	39.6 µM	34.2 µM	10.5 µM	31.9 µM	19.8 µM	23.8 µM
CN1CCN(c2ccc(-c3cnc4c(-c5csc6ccccc56)cnn4c3)cc2)CC1	> 15 µM	> 15 µM	> 15 µM	> 15 µM	10.1 µM	–	> 15 µM	> 15 µM	> 15 µM	> 15 µM	8.37 µM	9.25 µM	6.06 µM	4.59 µM	3.73 µM	3.65 µM	4.43 µM
COc1cccc(/C=C/C(=O)c2ccc(Cl)cc2Cl)c1OC	27.4 µM	14.9 µM	26.6 µM	13.1 µM	9.12 µM	–	26.9 µM	12.9 µM	30.3 µM	14.2 µM	16.6 µM	4.15 µM	13.7 µM	2.74 µM	2.98 µM	3.76 µM	2.77 µM
NC1=NC(c2ccccc2)N=C(Nc2ccccc2)N1 (stereo unspecified)	> 100 µM	> 100 µM	> 100 µM	> 100 µM	> 100 µM	–	> 100 µM	> 100 µM	> 100 µM	> 100 µM	> 100 µM	> 100 µM	> 100 µM	31.6 µM	> 100 µM	> 100 µM	> 100 µM
N#C/C(=C\c1ccc(Br)cc1)n1nnc2cccc(F)c21	3.97 µM	3.35 µM	3.07 µM	3.31 µM	1.94 µM	–	> 100 µM	1.89 µM	8.49 µM	1.87 µM	2.38 µM	1.63 µM	1.43 µM	1.51 µM	0.475 µM	0.478 µM	0.444 µM
Cc1ccc(N=C2CSc3nnc(-c4csc5c4CCCC5)n3N2)cc1	> 50 µM	> 50 µM	> 50 µM	> 50 µM	> 50 µM	–	> 50 µM	> 50 µM	> 50 µM	8.24 µM	0.24 µM	0.222 µM	0.295 µM	0.226 µM	0.204 µM	0.227 µM	0.158 µM
O=C1C=CC(=O)C1(Br)Br	21.8 µM	31.8 µM	39.9 µM	29.4 µM	27.9 µM	–	26.6 µM	17.3 µM	38.4 µM	–	–	–	–	–	–	–	–
Cc1cc(S(=O)(=O)Nc2nc3ccsc3c(=O)n2Cc2ccco2)c(S)cc1Cl	> 100 µM	> 100 µM	> 100 µM	> 100 µM	> 100 µM	–	> 100 µM	> 100 µM	> 100 µM	> 100 µM	> 100 µM	99 µM	> 100 µM	> 100 µM	> 100 µM	> 100 µM	50.7 µM
O=C1C(Cl)=C(Nc2ccc3cn[nH]c3c2)C(=O)c2ccccc21	3.01 µM	3.33 µM	1.81 µM	14.7 µM	2.95 µM	–	3.91 µM	2.17 µM	5.29 µM	1.65 µM	2.15 µM	1.66 µM	0.413 µM	3.23 µM	1.36 µM	1.01 µM	1.52 µM

Structure (SMILES)	TGI [1]	TGI [2]	TGI [3]	TGI [4]	TGI [5]	TGI [6]	TGI [7]	TGI [8]	TGI [9]	GI50 [1]	GI50 [9]	GI50 [2]	GI50 [3]	GI50 [4]	GI50 [5]	GI50 [8]	GI50 [7]
COc1cc2c3c(n(CCN)c(=O)c2cc1OC)-c1cc2c(cc1C3=O)OCO2	3.44 µM	> 100 µM	1.06 µM	1.51 µM	2.29 µM	–	–	–	0.774 µM	1.55 µM	0.122 µM	1.5 µM	0.0788 µM	0.235 µM	0.0383 µM	0.471 µM	< 0.01 µM
CC(CN)[C@@H]1CC[C@]2(CO)CC[C@]3(C)[C@H](CC[C@@H]4[C@@]5(C)CCC(NCCO)C(C)(C)[C@@H]5CC[C@]43C)[C@@H]12 (stereo partly specified)	3.43 µM	3.54 µM	5.47 µM	4.14 µM	3.26 µM	–	5 µM	3.97 µM	4.08 µM	1.87 µM	2 µM	1.8 µM	2.29 µM	1.9 µM	1.71 µM	1.98 µM	1.99 µM
Nc1ccc(C#Cc2cncnc2Nc2ccc(OCc3cccc(F)c3)c(Cl)c2)cc1	> 25 µM	> 25 µM	> 25 µM	> 25 µM	> 25 µM	–	> 25 µM	> 25 µM	> 25 µM	> 19 µM	> 17.3 µM	> 14.3 µM	> 20.5 µM	10.2 µM	> 25 µM	7.32 µM	5.72 µM
COc1ccc(C2NCCc3c2[nH]c2ccccc32)cc1CN1CCN(c2ccc(F)cc2)CC1 (stereo unspecified)	3.05 µM	13 µM	17 µM	3.33 µM	3.33 µM	–	7.19 µM	3.06 µM	3.82 µM	1.61 µM	1.81 µM	3.54 µM	4.77 µM	1.86 µM	1.74 µM	1.61 µM	2.8 µM
N#C/C(=C/C=C(\Cl)c1ccc(Cl)cc1)C(N)=O	9.88 µM	22.7 µM	8.83 µM	4.69 µM	4.53 µM	–	> 100 µM	> 32.5 µM	4.33 µM	3.28 µM	2.36 µM	8.13 µM	2.4 µM	2.1 µM	2.1 µM	2.79 µM	2.81 µM
CO[C@H]1[C@H](O)[C@H](O[C@H]2CC[C@@]3(C)[C@H](CC[C@@H]4[C@@H]3CC[C@]3(C)[C@@H](C5=CC(=O)OC5)CC[C@]43O)C2)O[C@@H](C)[C@@H]1O	0.00622 µM and < 0.0227 µM	0.00324 µM	0.00127 µM	0.0125 µM	0.00341 µM	0.016 µM	0.00107 µM	0.00255 µM and < 0.0124 µM	–	–	–	–	–	–	–	–	0.000406 µM
CCCCCCCCOc1ccc(/C=N/Nc2cc(C)nc3ccc(Cl)cc23)cc1	3.2 µM	3.83 µM	3.84 µM	3.44 µM	3.63 µM	–	5.28 µM	3.38 µM	3.09 µM	1.78 µM	1.48 µM	2 µM	1.9 µM	1.85 µM	1.89 µM	1.85 µM	2.04 µM
COc1ncc(-c2nc3c(n2C(C)C)[C@H](c2ccc(Cl)cc2)N(c2cc(Cl)cn(C)c2=O)C3=O)c(OC)n1	> 100 µM	> 100 µM	> 100 µM	> 100 µM	> 100 µM	–	> 100 µM	> 100 µM	> 100 µM	42.2 µM	90 µM	61.5 µM	> 100 µM	41.2 µM	63.7 µM	34.5 µM	30.9 µM
COC(=O)[C@]12CC[C@@H](C)[C@H](C)[C@@H]1C1=CC[C@@H]3[C@@]4(C)C(C=O)=C[C@@](C)(COC(C)=O)[C@@H]4[C@H](O)C[C@@]3(C)[C@]1(C)CC2	4.92 µM	14.8 µM	7.35 µM	6.93 µM	8.21 µM	–	7.01 µM	3.06 µM	6.04 µM	2.16 µM	2.74 µM	3.22 µM	2.76 µM	2.35 µM	2.66 µM	1.54 µM	1.98 µM
C=C1C(=O)O[C@H]2[C@H]1CC/C(COC(=O)C(=O)c1c[nH]c3ccc(OC)cc13)=C\CC[C@@]1(C)O[C@@H]21	9.55 µM	19.6 µM	13.8 µM	14.2 µM	16.2 µM	–	23 µM	7.82 µM	11.9 µM	5.05 µM	6.49 µM	8.97 µM	7.01 µM	7.82 µM	4 µM	3.77 µM	2.47 µM
COc1c2ccccc2c(O)c2c(=O)c(C(=O)O)cn(C)c12	> 100 µM	> 100 µM	> 100 µM	> 100 µM	> 100 µM	–	> 100 µM	> 100 µM	> 100 µM	65 µM	> 100 µM	> 100 µM	> 100 µM	> 100 µM	> 100 µM	> 100 µM	> 100 µM
COc1cc2c3c(n(CCCN)c(=O)c2cc1OC)-c1ccc(F)cc1C3=O	26.9 µM	15.9 µM	9.39 µM	20.3 µM	15.5 µM	–	0.987 µM	6.89 µM	2.05 µM	12.6 µM	0.544 µM	1.47 µM	1.65 µM	5.95 µM	1.17 µM	2.24 µM	0.17 µM
N#Cc1c[nH]n2ccnc12	> 100 µM	> 100 µM	> 100 µM	> 100 µM	> 100 µM	–	> 100 µM	> 100 µM	> 100 µM	–	–	–	–	–	–	–	–
C=C(CN1CCN(c2cccc(C(F)(F)F)c2)CC1)c1ccc(C(=O)Nc2ccccc2N)cc1	> 27.2 µM	> 30.2 µM	> 32.9 µM	5.15 µM	15.9 µM	–	> 50 µM	3.62 µM	6.27 µM	3.4 µM	0.696 µM	4.11 µM	3.72 µM	0.486 µM	1.28 µM	0.48 µM	0.335 µM
O=c1cccc(C#Cc2ccccc2)o1	40.2 µM	37.6 µM	12.2 µM	14.6 µM	43.3 µM	–	> 44 µM	23.6 µM	15.4 µM	15 µM	4.63 µM	10.5 µM	4.42 µM	5.05 µM	4.85 µM	6.9 µM	–
CCOP(=O)(CC(=O)C1=C(O)C(CCCNC(=O)OC(C)(C)C)N(Cc2ccc(OC)c(OC)c2)C1=O)OCC (stereo unspecified)	> 100 µM	> 100 µM	> 100 µM	> 100 µM	> 100 µM	> 100 µM	> 100 µM	–	> 100 µM	–	–	–	–	–	–	–	–
